Results taken from ChEMBL document CHEMBL1153318, “Design of potent thiophene inhibitors of polo-like kinase 1 with improved solubility and reduced protein binding” (Bioorg Med Chem Lett, 2009).
pIC50: −log10 of the molar value. Converted amounts (≈) assume the structure as drawn.

Legend:
[1] = Solubility in 0.05 M phosphate buffer at 200 uM at pH 7.4 after 15 mins by HPLC; format: physicochemical
[2] = Protein binding in human plasma at 2000 ng/mL after 6 hrs by equilibrium dialysis method; format: ADME, cell-free; conditions: read-out: PPB (converted)
HCT-116 = assay: cells; conditions: Homo sapiens, HCT-116, 72 h
Description: Antiproliferative activity against human HCT116 cells after 72 hrs by luminescence-based cell viability assay

[3] = biological target: Serine/threonine-protein kinase PLK1 (Homo sapiens, UniProt P53350); assay: biochemical
Serine/threonine-protein kinase PLK1, sequence (P53350 whole entry): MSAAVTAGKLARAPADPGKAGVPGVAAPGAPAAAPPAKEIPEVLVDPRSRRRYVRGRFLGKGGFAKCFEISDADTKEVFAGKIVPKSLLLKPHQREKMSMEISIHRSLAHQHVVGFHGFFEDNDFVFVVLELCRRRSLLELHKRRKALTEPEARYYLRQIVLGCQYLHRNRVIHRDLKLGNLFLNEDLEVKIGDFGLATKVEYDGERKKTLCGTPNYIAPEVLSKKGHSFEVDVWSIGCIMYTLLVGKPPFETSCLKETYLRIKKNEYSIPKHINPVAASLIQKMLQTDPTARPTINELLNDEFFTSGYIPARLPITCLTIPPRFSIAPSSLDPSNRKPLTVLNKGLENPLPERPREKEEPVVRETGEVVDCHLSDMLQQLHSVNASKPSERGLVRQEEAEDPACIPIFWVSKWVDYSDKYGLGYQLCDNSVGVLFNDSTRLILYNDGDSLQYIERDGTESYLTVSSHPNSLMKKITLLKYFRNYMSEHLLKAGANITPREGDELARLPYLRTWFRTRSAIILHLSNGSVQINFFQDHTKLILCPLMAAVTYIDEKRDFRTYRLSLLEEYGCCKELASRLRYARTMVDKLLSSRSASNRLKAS
Description: Inhibition of human PLK1 kinase domain expressed in baculovirus-infected Trichoplusia ni cells by scintillation proximity assay

[4] = biological target: Serine/threonine-protein kinase PLK3 (Homo sapiens, UniProt Q9H4B4); assay: biochemical
Serine/threonine-protein kinase PLK3, sequence (Q9H4B4 whole entry): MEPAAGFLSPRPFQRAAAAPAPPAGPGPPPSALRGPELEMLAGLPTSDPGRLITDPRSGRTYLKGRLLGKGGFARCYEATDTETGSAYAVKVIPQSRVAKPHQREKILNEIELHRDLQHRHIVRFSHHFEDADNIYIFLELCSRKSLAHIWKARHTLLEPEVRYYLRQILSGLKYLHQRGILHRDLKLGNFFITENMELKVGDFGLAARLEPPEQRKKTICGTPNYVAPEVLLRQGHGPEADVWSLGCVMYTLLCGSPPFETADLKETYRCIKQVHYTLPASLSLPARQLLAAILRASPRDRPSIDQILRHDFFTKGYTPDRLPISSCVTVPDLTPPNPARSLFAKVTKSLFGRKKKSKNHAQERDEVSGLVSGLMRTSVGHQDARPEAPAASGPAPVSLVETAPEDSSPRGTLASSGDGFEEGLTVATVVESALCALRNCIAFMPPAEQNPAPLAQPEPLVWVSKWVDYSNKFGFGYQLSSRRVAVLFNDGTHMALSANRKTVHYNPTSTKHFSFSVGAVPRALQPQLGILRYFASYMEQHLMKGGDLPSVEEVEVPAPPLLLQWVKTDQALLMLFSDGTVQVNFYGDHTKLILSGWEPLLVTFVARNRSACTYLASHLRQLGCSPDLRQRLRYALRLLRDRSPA
Description: Inhibition of full length human PLK3 expressed in baculovirus-infected Trichoplusia ni cells by scintillation proximity assay

MX1 = assay: Antiproliferative activity against human MX1 cells after 72 hrs by luminescence-based cell viability assay; format: functional; conditions: MX1, 72 h
SK-OV-3 = assay: Antiproliferative activity against human SKOV3 cells after 72 hrs by luminescence-based cell viability assay; format: functional; conditions: SK-OV-3, 72 h
[5] = biological target: Platelet-derived growth factor receptor beta (Homo sapiens, UniProt P09619); assay: Inhibition of human PDGFR1beta
Platelet-derived growth factor receptor beta, sequence (P09619 whole entry): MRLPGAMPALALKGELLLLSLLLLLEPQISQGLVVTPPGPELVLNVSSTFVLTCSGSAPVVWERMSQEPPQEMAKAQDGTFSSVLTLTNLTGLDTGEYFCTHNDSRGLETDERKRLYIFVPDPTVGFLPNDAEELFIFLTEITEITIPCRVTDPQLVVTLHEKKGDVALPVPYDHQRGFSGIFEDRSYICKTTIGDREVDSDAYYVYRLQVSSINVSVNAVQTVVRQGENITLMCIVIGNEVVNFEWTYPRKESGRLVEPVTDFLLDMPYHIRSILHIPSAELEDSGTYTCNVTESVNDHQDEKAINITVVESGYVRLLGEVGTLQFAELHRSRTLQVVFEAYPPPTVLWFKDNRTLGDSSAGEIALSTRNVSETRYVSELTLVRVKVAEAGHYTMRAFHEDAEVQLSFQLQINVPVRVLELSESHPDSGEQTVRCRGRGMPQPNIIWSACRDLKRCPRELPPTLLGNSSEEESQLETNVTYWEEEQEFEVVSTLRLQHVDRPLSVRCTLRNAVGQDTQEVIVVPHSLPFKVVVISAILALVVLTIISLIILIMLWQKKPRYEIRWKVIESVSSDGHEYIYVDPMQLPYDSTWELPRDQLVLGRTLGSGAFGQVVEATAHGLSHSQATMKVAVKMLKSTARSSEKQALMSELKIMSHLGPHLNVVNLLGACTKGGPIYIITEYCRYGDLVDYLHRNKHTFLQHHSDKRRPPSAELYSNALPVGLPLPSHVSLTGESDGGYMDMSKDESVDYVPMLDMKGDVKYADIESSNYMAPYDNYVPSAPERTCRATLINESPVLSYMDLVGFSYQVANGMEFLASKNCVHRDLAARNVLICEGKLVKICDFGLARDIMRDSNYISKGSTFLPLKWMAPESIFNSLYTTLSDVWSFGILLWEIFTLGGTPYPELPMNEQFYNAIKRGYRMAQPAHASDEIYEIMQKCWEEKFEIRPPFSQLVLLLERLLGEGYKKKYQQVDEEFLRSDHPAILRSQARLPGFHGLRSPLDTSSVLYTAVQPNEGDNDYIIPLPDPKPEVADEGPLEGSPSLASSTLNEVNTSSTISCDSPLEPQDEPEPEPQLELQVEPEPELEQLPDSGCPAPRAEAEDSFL

[6] = biological target: Serine/threonine-protein kinase pim-1 (Homo sapiens, UniProt P11309); assay: Inhibition of human PIM1
Serine/threonine-protein kinase pim-1, sequence (P11309 whole entry, canonical isoform): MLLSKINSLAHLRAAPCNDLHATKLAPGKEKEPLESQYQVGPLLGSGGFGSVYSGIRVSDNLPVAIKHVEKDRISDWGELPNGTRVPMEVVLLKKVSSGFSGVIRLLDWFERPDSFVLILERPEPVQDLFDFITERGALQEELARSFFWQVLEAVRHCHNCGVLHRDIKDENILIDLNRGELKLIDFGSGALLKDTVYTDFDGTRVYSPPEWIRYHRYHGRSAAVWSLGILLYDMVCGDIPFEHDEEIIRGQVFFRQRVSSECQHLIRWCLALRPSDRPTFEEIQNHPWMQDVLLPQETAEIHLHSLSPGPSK

[7] = biological target: T1, Phosphatidylinositol 4,5-bisphosphate 3-kinase catalytic subunit delta isoform (Homo sapiens, UniProt O00329); assay: Inhibition of human PI3Kdelta
T1 sequence (O00329 whole entry): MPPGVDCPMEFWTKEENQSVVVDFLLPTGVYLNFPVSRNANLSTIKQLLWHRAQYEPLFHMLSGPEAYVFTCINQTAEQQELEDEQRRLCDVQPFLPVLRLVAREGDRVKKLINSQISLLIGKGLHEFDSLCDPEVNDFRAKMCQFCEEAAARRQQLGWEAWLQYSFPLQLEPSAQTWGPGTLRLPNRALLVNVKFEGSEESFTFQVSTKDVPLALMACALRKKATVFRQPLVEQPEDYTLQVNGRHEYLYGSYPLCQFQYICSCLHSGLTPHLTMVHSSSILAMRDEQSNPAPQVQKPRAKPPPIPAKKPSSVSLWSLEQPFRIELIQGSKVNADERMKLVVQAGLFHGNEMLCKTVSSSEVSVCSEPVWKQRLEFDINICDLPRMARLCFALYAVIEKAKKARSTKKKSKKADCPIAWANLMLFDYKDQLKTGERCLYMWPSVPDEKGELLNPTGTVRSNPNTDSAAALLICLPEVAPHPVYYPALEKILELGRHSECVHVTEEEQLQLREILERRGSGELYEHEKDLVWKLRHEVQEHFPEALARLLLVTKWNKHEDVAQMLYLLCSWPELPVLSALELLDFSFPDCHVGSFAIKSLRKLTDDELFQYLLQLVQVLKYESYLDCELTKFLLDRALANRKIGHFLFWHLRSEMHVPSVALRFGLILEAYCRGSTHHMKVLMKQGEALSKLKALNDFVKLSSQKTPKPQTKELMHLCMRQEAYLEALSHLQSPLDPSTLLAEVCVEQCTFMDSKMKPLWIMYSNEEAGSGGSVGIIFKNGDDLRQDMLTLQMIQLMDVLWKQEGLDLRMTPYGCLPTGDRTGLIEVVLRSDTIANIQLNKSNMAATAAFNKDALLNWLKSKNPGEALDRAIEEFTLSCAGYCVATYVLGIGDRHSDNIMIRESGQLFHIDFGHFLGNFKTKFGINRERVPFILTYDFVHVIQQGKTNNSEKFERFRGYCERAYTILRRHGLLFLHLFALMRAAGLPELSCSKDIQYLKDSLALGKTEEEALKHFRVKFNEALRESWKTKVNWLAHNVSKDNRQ

[8] = biological target: Vascular endothelial growth factor receptor 2 (Homo sapiens, UniProt P35968); assay: Inhibition of human VEGFR2
Vascular endothelial growth factor receptor 2, sequence (P35968 whole entry): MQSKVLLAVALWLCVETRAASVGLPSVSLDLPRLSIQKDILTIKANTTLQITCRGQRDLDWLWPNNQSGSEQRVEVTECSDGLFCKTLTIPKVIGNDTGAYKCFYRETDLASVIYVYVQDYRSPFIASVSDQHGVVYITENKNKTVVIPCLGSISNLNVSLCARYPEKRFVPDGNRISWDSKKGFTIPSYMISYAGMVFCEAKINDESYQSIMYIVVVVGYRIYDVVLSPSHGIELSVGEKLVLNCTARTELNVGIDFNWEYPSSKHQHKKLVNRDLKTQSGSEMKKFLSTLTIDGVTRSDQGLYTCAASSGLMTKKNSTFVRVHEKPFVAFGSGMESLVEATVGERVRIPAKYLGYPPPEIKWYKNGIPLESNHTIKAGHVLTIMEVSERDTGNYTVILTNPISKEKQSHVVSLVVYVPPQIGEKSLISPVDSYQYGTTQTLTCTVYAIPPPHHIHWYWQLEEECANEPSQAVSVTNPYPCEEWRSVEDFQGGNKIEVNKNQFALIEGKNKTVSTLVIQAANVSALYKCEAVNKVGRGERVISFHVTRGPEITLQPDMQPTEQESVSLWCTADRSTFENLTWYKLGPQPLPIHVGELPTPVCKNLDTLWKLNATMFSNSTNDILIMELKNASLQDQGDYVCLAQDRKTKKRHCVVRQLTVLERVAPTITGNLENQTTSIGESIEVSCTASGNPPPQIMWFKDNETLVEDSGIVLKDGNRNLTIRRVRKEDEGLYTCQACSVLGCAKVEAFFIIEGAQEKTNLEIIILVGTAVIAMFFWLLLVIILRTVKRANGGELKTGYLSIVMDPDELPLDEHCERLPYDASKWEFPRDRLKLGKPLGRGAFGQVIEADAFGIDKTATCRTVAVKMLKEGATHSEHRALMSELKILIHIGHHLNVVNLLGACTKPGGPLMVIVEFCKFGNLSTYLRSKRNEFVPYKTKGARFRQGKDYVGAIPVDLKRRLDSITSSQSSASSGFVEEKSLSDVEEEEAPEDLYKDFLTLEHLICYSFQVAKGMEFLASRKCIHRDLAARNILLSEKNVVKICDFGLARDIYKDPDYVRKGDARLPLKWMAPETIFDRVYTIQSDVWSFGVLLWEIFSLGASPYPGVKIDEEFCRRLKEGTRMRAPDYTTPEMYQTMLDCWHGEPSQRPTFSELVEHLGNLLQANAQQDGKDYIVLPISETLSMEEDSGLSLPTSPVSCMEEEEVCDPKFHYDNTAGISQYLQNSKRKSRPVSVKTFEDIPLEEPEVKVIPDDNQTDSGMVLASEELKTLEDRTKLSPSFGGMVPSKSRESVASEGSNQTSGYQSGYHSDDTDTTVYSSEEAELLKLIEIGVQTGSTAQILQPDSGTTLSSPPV

[9] = biological target: T2, NUAK family SNF1-like kinase 1 (Homo sapiens, UniProt O60285); assay: Inhibition of human Nuak1
T2 sequence (O60285 whole entry): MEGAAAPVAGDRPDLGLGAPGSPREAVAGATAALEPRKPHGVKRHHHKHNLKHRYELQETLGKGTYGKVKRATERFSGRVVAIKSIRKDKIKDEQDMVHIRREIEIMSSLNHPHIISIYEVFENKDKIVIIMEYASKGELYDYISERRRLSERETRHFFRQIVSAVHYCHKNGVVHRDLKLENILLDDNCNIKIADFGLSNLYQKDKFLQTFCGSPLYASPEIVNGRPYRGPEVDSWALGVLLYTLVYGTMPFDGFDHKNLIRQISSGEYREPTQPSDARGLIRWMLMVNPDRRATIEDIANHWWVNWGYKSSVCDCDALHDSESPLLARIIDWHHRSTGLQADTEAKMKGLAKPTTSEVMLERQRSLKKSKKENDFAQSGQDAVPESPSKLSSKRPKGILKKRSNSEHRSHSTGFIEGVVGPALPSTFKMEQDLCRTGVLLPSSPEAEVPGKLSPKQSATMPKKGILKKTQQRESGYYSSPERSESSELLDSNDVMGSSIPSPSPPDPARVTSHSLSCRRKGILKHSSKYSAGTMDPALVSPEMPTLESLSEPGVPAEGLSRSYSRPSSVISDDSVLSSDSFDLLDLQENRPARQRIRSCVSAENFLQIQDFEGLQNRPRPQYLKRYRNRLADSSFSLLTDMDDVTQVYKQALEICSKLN

COLO 205 = assay: Antiproliferative activity against human COLO205 cells after 72 hrs by luminescence-based cell viability assay; format: functional; conditions: COLO 205, 72 h
HT-29 = assay: Antiproliferative activity against human HT-29 cells after 72 hrs by luminescence-based cell viability assay; format: functional; conditions: HT-29, 72 h
A549 = assay: Antiproliferative activity against human A549 cells after 72 hrs by luminescence-based cell viability assay; format: functional; conditions: A549, 72 h
[10] = biological target: T3, Serine/threonine-protein kinase Nek2 (Homo sapiens, UniProt P51955)
T3 sequence (P51955 whole entry): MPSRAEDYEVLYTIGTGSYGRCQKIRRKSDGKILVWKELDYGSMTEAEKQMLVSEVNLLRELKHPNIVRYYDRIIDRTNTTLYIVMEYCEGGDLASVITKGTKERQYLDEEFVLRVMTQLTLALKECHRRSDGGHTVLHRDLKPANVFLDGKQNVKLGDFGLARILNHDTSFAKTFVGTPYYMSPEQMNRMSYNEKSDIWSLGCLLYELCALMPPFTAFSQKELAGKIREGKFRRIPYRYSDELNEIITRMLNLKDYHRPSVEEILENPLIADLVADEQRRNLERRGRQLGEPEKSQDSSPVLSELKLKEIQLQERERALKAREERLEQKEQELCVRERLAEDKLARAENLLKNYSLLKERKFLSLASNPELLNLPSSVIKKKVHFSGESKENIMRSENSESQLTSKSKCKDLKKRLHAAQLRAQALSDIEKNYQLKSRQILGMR

[11] = biological target: Phosphatidylinositol 4,5-bisphosphate 3-kinase catalytic subunit gamma isoform (Homo sapiens, UniProt P48736); assay: Inhibition of human PI3Kgamma

Row | Structure (SMILES) | solubility at 0.25 h, 200 µM [1] [µM] | fraction unbound at 6 h, 2000 ng/mL [2] | pIC50 (HCT-116) | pIC50 [3] | pIC50 [4] | also measured
1 | COc1ccc2ncn(-c3cc(O[C@H](C)c4ccccc4C(F)(F)F)c(C(N)=O)s3)c2c1 [GSK-317315A] | 1 (≈ 0.461 µg/mL) | 0.005 | 6.32 | 8.52 | 7.39 | –
2 | CC(Oc1cc(-n2cnc3ccc(OCC4CCN(C)CC4)cc32)sc1C(N)=O)c1ccccc1Cl (single isomer, unassigned) [GSK-571989A] | ≥ 172 | 0.021 | 7.47 | 8.22 | 5.96 | –
3 | COc1cc2ncn(-c3cc(OCc4ccccc4Cl)c(C(N)=O)s3)c2cc1OC [GW852849X] | – | – | 5.94 | – | 8.05 | –
4 | CC(Oc1cc(-n2cnc3ccc(OC4CCN(C)CC4)cc32)sc1C(N)=O)c1ccccc1Cl (single isomer, unassigned) [GSK-579289A] | ≥ 190 | 0.085 | 7.96 | – | 6.20 | pIC50 (MX1): 8.05; pIC50 (SK-OV-3): 7.96; pIC50 [5]: 6.38; pIC50 [6]: 6.51; pIC50 [7]: 6.36; pIC50 [8]: 5.92; pIC50 [9]: 5.70; pIC50 (COLO 205): 8.30; pIC50 (HT-29): 8.52; pIC50 (A549): 7.96; pIC50 [10]: 7.68
5 | COc1cc2ncn(-c3cc(O[C@@H](C)c4ccccc4Cl)c(C(N)=O)s3)c2cc1OC [GSK-237700A] | – | – | 6.00 | – | 7.36 | –
6 | CC(Oc1cc(-n2cnc3ccc(O[C@H]4CCCN(C)CC4)cc32)sc1C(N)=O)c1ccccc1Cl (single isomer, unassigned) | ≥ 200 | 0.031 | 7.77 | – | – | –
7 | CC(Oc1cc(-n2cnc3ccc(OC[C@@H](O)CO)cc32)sc1C(N)=O)c1ccccc1Cl (single isomer, unassigned) [GSK-978744A] | 15 (≈ 7.32 µg/mL) | – | 7.14 | 9.00 | 7.21 | –
8 | COc1ccc2ncn(-c3cc(O[C@H](C)c4ccccc4Cl)c(C(N)=O)s3)c2c1 [GSK-317314A] | 3 (≈ 1.28 µg/mL) | 0.005 | 6.49 | 9.00 | 7.46 | –
9 | CC(Oc1cc(-n2cnc3ccc(OC4CCN(C)CC4)cc32)sc1C(N)=O)c1ccccc1C(F)(F)F (single isomer, unassigned) | 179 (≈ 97.5 µg/mL) | 0.052 | 7.92 | – | 6.57 | pIC50 (MX1): 8.00; pIC50 (SK-OV-3): 7.49; pIC50 [5]: 6.96; pIC50 [6]: 6.47; pIC50 [11]: 6.41; pIC50 [7]: 6.28; pIC50 [8]: 6.10; pIC50 [9]: 6.08; pIC50 (COLO 205): 8.30; pIC50 (HT-29): 8.52; pIC50 (A549): 7.85; pIC50 [10]: 7.60
10 | COc1cc2ncn(-c3cc(O[C@H](C)c4ccccc4Cl)c(C(N)=O)s3)c2cc1OC [GSK-237701A] | 2 (≈ 0.916 µg/mL) | – | 7.60 | – | 8.22 | –
11 | CC(Oc1cc(-n2cnc3ccc(OCC4CCN(C)CC4)cc32)sc1C(N)=O)c1ccccc1C(F)(F)F (single isomer, unassigned) [GSK-326090A] | 109 (≈ 60.9 µg/mL) | 0.023 | 7.52 | 8.15 | 6.26 | –
12 | C[C@@H](Oc1cc(-n2cnc3ccc(OC[C@H](O)CN4CCCC4)cc32)sc1C(N)=O)c1ccccc1Cl (single isomer, unassigned) | 170 (≈ 92 µg/mL) | 0.038 | 7.35 | – | – | –
13 | CC(Oc1cc(-n2cnc3ccc(O[C@@H]4CCCN(C)CC4)cc32)sc1C(N)=O)c1ccccc1Cl (single isomer, unassigned) | 200 (≈ 105 µg/mL) | 0.02 | 7.89 | – | – | –
14 | CC(Oc1cc(-n2cnc3ccc(OCCCN(C)C)cc32)sc1C(N)=O)c1ccccc1Cl (single isomer, unassigned) | 161 (≈ 80.3 µg/mL) | 0.026 | 7.49 | – | – | –
15 | CC(Oc1cc(-n2cnc3ccc(OC4CCNCC4)cc32)sc1C(N)=O)c1ccccc1C(F)(F)F (single isomer, unassigned) | 104 (≈ 55.2 µg/mL) | 0.034 | 7.82 | – | – | –
